{"source": "patent EP1028947B1", "about": "“H3 RECEPTOR LIGANDS OF THE PHENYL-ALKYL-[…]” (SCHERING CORPORATION, priority 1997, dated 1999)", "key": {"[1]": {"experiment": "Blood levels of the compound (no method described)", "assay_type": "in vivo", "settings": "compared with the preferred compounds of WO 95/14007; statement in words, no data"}, "[2]": {"molecular_target": "T1, H3 receptors (Cavia porcellus, UniProt Q9JI35)", "T1 construct": "The source of the H3 receptors in this experiment was guinea pig brain; from tissue; host or cells: guinea pig brain membranes", "T1 sequence (Q9JI35 whole entry)": "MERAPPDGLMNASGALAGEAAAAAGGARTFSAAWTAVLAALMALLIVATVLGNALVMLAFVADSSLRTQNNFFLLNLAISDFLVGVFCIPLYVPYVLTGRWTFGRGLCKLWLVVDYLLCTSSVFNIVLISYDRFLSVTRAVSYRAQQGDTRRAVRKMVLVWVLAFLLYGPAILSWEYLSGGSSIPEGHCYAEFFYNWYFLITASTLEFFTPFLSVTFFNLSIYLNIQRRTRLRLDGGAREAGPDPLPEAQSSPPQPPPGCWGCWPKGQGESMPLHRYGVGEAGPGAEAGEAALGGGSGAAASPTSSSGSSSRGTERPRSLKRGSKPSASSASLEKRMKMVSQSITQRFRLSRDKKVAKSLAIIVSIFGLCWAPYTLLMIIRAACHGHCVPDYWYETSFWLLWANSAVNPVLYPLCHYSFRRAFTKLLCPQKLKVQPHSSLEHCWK", "experiment": "H3-Receptor Binding Assay", "settings": "guinea pig brain membranes; 3 nM [3H]R-a-methylhistamine or 3 nM [3H]Na-methylhistamine; 30°C for 30 min; HCl salt of the compound", "method": "H3-Receptor Binding Assay\nThe source of the H3 receptors in this experiment was guinea pig brain. The animals weighed 400-600 g. The brain tissue was homogenized using a Polytron in a solution of 50 mM Tris, pH 7.5. The final concentration of tissue in the homogenization buffer was 10% w/v. The homogenates were centrifuged at 1,000 x g for 10 min. in order to remove clumps of tissue and debris. The resulting supematants were then centrifuged at 50,000 x g for 20 min. in order to sediment the membranes, which were next washed three times in homogenization buffer (50,000 x g for 20 min. each). The membranes were frozen and stored at -70°C until needed.\nThe compound to be tested was dissolved in DMSO and then diluted into the binding buffer (50 mM Tris, pH 7.5) such that the final concentration was 2 µg/ml with 0.1% DMSO. Membranes were then added (400 µg of protein) to the reaction tubes. The reaction was started by the addition of 3 nM [^3H]R-a-methylhistamine (8.8 Ci/mmol) or 3 nM [^3H]N^a-methylhistamine (80 Ci/mmol) and continued under incubation at 30°C for 30 min. Bound ligand was separated from unbound ligand by filtration, and the amount of radioactive ligand bound to the membranes was quantitated by liquid scintillation spectrometry. All incubations were performed in duplicate and the standard error was always less than 10%. The Compound was serially diluted to determine a Ki (nM). […]"}}, "data": [{"smiles": "O=C(NCc1ccc(Cc2c[nH]cn2)cc1)Nc1cc(Cl)cc(Cl)c1", "note": "[compound of the present invention]", "values": [{"measurement": "blood levels of the compound", "setting": "[1]", "value": "higher blood levels"}, {"measurement": "Ki", "setting": "[2]", "value": 4, "unit": "nM"}]}]}
